Laboratory results reported in patent US8592484B2, “Cosmetic composition containing calcium citrate and N-acylated aminoalcohol derivative to prevent dry skin and signs of cutaneous ageing” (Cognis IP Management GmbH, priority 2009, dated 2013).
“And” between values parts separate entries of the source, which are not always exact repeats. Equal entries are not always repeated. Marks after values point to notes of the source that are not given here.

Legend:
[1] = system: human keratinocytes; test: MTT test, viability of human keratinocytes; assay type: cell-based; conditions: at the concentrations tested for involucrin
Protocol: (§1) Human keratinocytes were seeded in growth medium (standard medium MCDB153 completed by Fetal Calf Serum at 2%). After 3-4 days of incubation at 37° C., CO2=5%, the growth medium was exchanged by standard medium MCDB153 without FCS (untreated control), and with a range of concentrations of products to be tested. After 1 day of incubation at 37° C., CO2=5%, the lack of cytotoxicity of the different product and doses tested was recorded using MTT test, and the level of involucrin was measured by an ELISA method.

[2] = system: human keratinocytes; test: Keratinocyte differentiation: involucrin by ELISA in primary culture of human keratinocytes; assay type: cell-based; conditions: for Involucrin (in % +/− SEM): 1 day incubation; for effect on the synthesis of the keratinocyte differentiation marker involucrin (in words): at the tested concentrations
Protocol: The purpose was to evaluate the potential of the products to stimulate the differentiation of human keratinocytes into corneocytes and therefore the formation of an optimal skin barrier. The products were tested on primary culture of human keratinocytes by measuring the quantity of synthesized involucrin through an ELISA method. Involucrin is a rod shaped protein of 68 kD released by keratinocytes of early spinous layers up to granular layer of human epidermis.
as §1
The results are expressed in % versus control and presented as a mean+/−SEM (standard error of mean) of 2 or 3 assays (different donors of keratinocytes) in duplicate or triplicate.

[3] = system: ceramidase; test: Ceramidase inhibition, enzymatic extract of PMA-activated HL60 cells, [14C]-C16 ceramide substrate; assay type: biochemical; conditions: 1 hour at 37° C., mean of triplicate
Protocol: HL60 cells activated with Phorbol 12-myristate 13-acetate (PMA) at 5 nM were cultured in 175 cm^2 flasks. […] The supernatant obtained after centrifugation constituted the enzymatic extract.
The substrate [^14C]—C16 ceramide (N-palmitoyl-D-Sphingosine) was prepared as follows:
Evaporation of the organic phase and dissolution in distilled water. […] After evaporation and addition of Triton and cholate, the purified substrate was solubilised in distilled water.
The reaction mixture was incubated at 37° C. during 1 hour. The reaction mixture consisted of 5 μl MgCl2 (50 mM), 25 μl enzymatic extract or buffer; 7.5 μl substrate and 12.5 μl product to be tested. The products to be tested were prepared 4× concentrated in buffer at the tested pH and contained 1% of ethanol in final.
The quantification of enzymatic degradation of substrate was realized by measuring of radioactivity in heptane phase. […] The mixture was vortexed and centrifuged at 12 000 g 5 minutes. […] Results are expressed as the % of control.

[Ca+2].[Cl-].[Cl-] [CaCl2, Calcium chloride, reference compound]
viability (MTT test) of the human keratinocytes [1]: not significantly changed
Involucrin (in % +/− SEM) ([2]; CaCl2 dose 0.1 mM (Ca2+: 0.1 mM)): 21.9 +/− 5.3 ** %
effect on the synthesis of the keratinocyte differentiation marker involucrin (in words) [2]: significantly enhance
Involucrin (in % +/− SEM) ([2]; dose 0.013 mM (Ca2+: 0.013 mM)): 3.4 +/− 4.6^ %
Involucrin (in % +/− SEM) ([2]; dose 0.026 mM (Ca2+: 0.026 mM)): −1.4 +/− 4.6 ^ %
Involucrin (in % +/− SEM) ([2]; dose 0.3 mM (Ca2+ 0.3 mM)): 84.4 +/− 1.9 *** %

CCCCCCCC/C=C\CCCCCCCCNCCO [N-Oleyl-ethanolamine, reference compound]
Ceramidase activity in %/control ([3]; dose 5 μM): 98%
Ceramidase activity in %/control ([3]; dose 50 μM): 94%
Ceramidase activity in %/control ([3]; dose 500 μM): 79%

CCCCCCCC/C=C\CCCCCCCCNCC(O)CO (stereo not shown) [N-oleyl-(3 amino-1,2-propanediol)]
Ceramidase activity in %/control ([3]; dose 5 μM): 81%
Ceramidase activity in %/control ([3]; dose 50 μM): 78%
Ceramidase activity in %/control ([3]; dose 500 μM): 71%

O.O.O.O.O=C([O-])CC(O)(CC(=O)[O-])C(=O)[O-].O=C([O-])CC(O)(CC(=O)[O-])C(=O)[O-].[Ca+2].[Ca+2].[Ca+2] [Tricalcium dicitrate tetrahydrate, Tricalcium citrate tetrahydrate]
viability (MTT test) of the human keratinocytes [1]: not significantly changed
effect on keratinocytes differentiation compared with Calcium chloride ([2]; at equimolar doses of Ca2+, p<0.001 for Ca2+ 0.026 and 0.1 mM): more potent
effect on the synthesis of the keratinocyte differentiation marker involucrin (in words) [2]: significantly enhance
Involucrin (in % +/− SEM) ([2]; dose 0.0044 mM, 0.00025 % w/v (Ca2+: 0.013 mM)): 0.5 +/− 2.6^ % and 0.5 +/− 2.6%
Involucrin (in % +/− SEM) ([2]; dose 0.0088 mM, 0.00050 % w/v (Ca2+: 0.026 mM)): 31.6 +/− 2.9 *** %
Involucrin (in % +/− SEM) ([2]; dose 0.033 mM (Ca2+: 0.1 mM)): 73.4 +/− 3.7 *** %
Involucrin (in % +/− SEM) ([2]; tricalcium dicitrate dose 0.1 mM (Ca2+ 0.3 mM)): 101.7 +/− 7.2 *** %
